In patent US20240099214A1, “PLANT DEFENCE GENE EXPRESSION” (UPL Corporation Limited, priority 2021, published 2024):

How the values were obtained:
[1] = test system: Nbs-Irr resistance protein (gene 3, Solyc05g009760.1); assay: qRT-PCR expression of gene 3 in tomato leaves; format: in vivo, Tomato ecotype corbarino; design: key: relative expression normalized to a-tubulin housekeeping gene
Procedure: (§1) Tomato ecotype “corbarino” reported to be susceptible to TSWV infection was used in the experiment. Plants were grown in pots in a climatic chamber with a photoperiod of 16/8 hour at 25° C.
(§2) The viral strain (TSWV PV PV-0393) was utilized in the experiment. The virus was mechanically inoculated and propagated on tomato “corbarino”. The inoculum was prepared in an ice-cooled mortar grounding 1 gr of infected tomato tissue in 10 ml of Na-phosphate buffer 0.01M. The fresh prepared inoculum was stored in ice before use. Tomato plants at BBCH16 were dusted with Carborundum 600 mesh and selected leaves were rubbed with some droplets of inoculum. After 5 min. plants were sprayed with sterile water to remove the excess of inoculum and preserve the cell turgor.
(§3) Four treatments were compared: i) Mock inoculated; ii) TSWV; iii) 0.25% Laminarin; iv) 0.25% Laminarin+TSWV. In the last treatment the virus was inoculated 24 hrs after the laminarin application.
(§4) Total RNA was extracted from systemic infected tomato leaves by using the Quick-RNA Plant Kit (Zymo Research) following the manufacturer instructions. The extractions were carried out using three plants after 12 h, 24 h, 48 h, 72 h, 7 days after inoculation. Leaves were instantly frozen in liquid nitrogen after cutting to avoid any deterioration of the sample as well as any defense reaction. The RNA concentration was quantified by measuring the absorbance at 260 nm using a Nanodrop 2000 (Thermofisher). The purity of all of the RNA samples was assessed at an absorbance ratio of OD260/280 and OD260/230, while its structural integrity was checked by agarose gel electrophoresis. Only high-quality RNA with OD 260/280 and OD 260/230>2 was used for subsequent steps. Single-stranded cDNA was synthesized from 1 μg of total RNA using an iScript™ Select cDNA Synthesis Kit and random hexamers as primers (Bio-Rad, Milan, Italy), according to the manufacturer's instructions. Three biological replicates were created from the 3 leaves collected to test 15 genes. Alpha tubulin was used as reference gene.
(§5) qPCR reactions were performed with BioRad (Applied Biosystems, Foster City, CA, USA) using SYBR R Green. Each reaction was performed in 20 μl containing 10 μl of 2× Power SYBR Green PCR Master Mix (Life Technologies), 0.2-0.3 μM primers and cDNA samples diluted 1:20. Each qPCR reaction was performed in triplicate. Reactions were run using the cycling parameter described previously (Reid et al., 2006) and the qPCR data were analyzed by the Ct method (Pfaffl, 2001). In order to analyze the qPCR data, a-tubulin gene was used as housekeeping to determine the relative expression level of the other genes analyzed in this work. For the determination of qPCR efficiency of each primer pairs, a standard curve was performed using the following cDNA dilutions: 1:4, 1:16, 1:64; 1:256 and 1:1024. Every measurement was made in triplicate. The corresponding qPCR efficiencies (E) were calculated for every primer pair with the software 7300 System SDS software (Applied Biosystems, Foster City, CA, USA) according to the equation E=(10−1/slope−1)×100 (Rutledge and Stewart, 2008).
(§6) The significance of the differences between the gene expressions levels were compared by one-way ANOVA (p=0.01) and the means were separated by Tukey post-hoc test using SPSS ver.26 ([…]).

[2] = test system: Avr/Cf9 rapidly elicited protein 75 (gene 5, Solyc11g010250.1); assay: qRT-PCR expression of gene 5 in tomato leaves; format: in vivo, Tomato ecotype corbarino; design: key: relative expression normalized to a-tubulin housekeeping gene
Procedure: as §1, §2, §3, §4, §5, §6

Question: Which RQ1 ([1]; 12 hr, Laminarin + virus) does the source give for laminarin here?
Answer: The RQ1 was 11.935.

Question: And the RQ2 ([1]; 12 hr, Laminarin + virus)?
Answer: The RQ2 was 12.286.

Question: What about the RQ3 ([1]; 12 hr, Laminarin + virus) of the same substance?
Answer: The RQ3 was 0.9487.

Question: And the RQ mean ([1]; 12 hr, Laminarin + virus)?
Answer: Its RQ mean is 11.236.

Question: And the RQ1 ([1]; 12 hr, Laminarin alone)?
Answer: The RQ1 was 10.545.

Question: What about the RQ2 ([1]; 12 hr, Laminarin alone) of the same substance?
Answer: Its RQ2 is 10.498.

Question: What about the RQ3 ([1]; 12 hr, Laminarin alone) of the same substance?
Answer: Its RQ3 is 0.8329.

Question: And the RQ mean ([1]; 12 hr, Laminarin alone)?
Answer: The RQ mean was 0.9791.

Question: And the RQ1 ([1]; 24 hr, Laminarin + virus)?
Answer: The RQ1 was 11.167.

Question: What about the RQ2 ([1]; 24 hr, Laminarin + virus) of the same substance?
Answer: The RQ2 was 10.509.

Question: And the RQ3 ([1]; 24 hr, Laminarin + virus)?
Answer: Its RQ3 is 13.936.

Question: And the RQ mean ([1]; 24 hr, Laminarin + virus)?
Answer: Its RQ mean is 11.871.

Question: And the RQ1 ([1]; 24 hr, Laminarin alone)?
Answer: Its RQ1 is 12.229.

Question: What about the RQ2 ([1]; 24 hr, Laminarin alone) of the same substance?
Answer: Its RQ2 is 13.976.

Question: And the RQ3 ([1]; 24 hr, Laminarin alone)?
Answer: The RQ3 was 11.514.

Question: What about the RQ mean ([1]; 24 hr, Laminarin alone) of the same substance?
Answer: The RQ mean was 12.573.

Question: And the RQ1 ([1]; 48 hr, Laminarin + virus)?
Answer: Its RQ1 is 12.976.

Question: What about the RQ2 ([1]; 48 hr, Laminarin + virus) of the same substance?
Answer: Its RQ2 is 26.960.

Question: What about the RQ3 ([1]; 48 hr, Laminarin + virus) of the same substance?
Answer: The RQ3 was 15.208.

Question: And the RQ mean ([1]; 48 hr, Laminarin + virus)?
Answer: Its RQ mean is 18.381.

Question: What about the RQ1 ([1]; 48 hr, Laminarin alone) of the same substance?
Answer: Its RQ1 is 27.419.

Question: And the RQ2 ([1]; 48 hr, Laminarin alone)?
Answer: Its RQ2 is 26.255.

Question: What about the RQ3 ([1]; 48 hr, Laminarin alone) of the same substance?
Answer: Its RQ3 is 14.098.

Question: What about the RQ mean ([1]; 48 hr, Laminarin alone) of the same substance?
Answer: Its RQ mean is 22.591.

Question: And the RQ1 ([1]; 72 hr, Laminarin + virus)?
Answer: Its RQ1 is 47.747.

Question: What about the RQ2 ([1]; 72 hr, Laminarin + virus) of the same substance?
Answer: Its RQ2 is 48.776.

Question: And the RQ3 ([1]; 72 hr, Laminarin + virus)?
Answer: The RQ3 was 16.860.

Question: What about the RQ mean ([1]; 72 hr, Laminarin + virus) of the same substance?
Answer: The RQ mean was 37.794.

Question: What about the RQ1 ([1]; 72 hr, Laminarin alone) of the same substance?
Answer: The RQ1 was 19.725.

Question: What about the RQ2 ([1]; 72 hr, Laminarin alone) of the same substance?
Answer: Its RQ2 is 58.615.

Question: And the RQ3 ([1]; 72 hr, Laminarin alone)?
Answer: Its RQ3 is 21.699.

Question: What about the RQ mean ([1]; 72 hr, Laminarin alone) of the same substance?
Answer: The RQ mean was 33.346.

Question: What about the RQ1 ([2]; 12 hr, Laminarin + virus) of the same substance?
Answer: Its RQ1 is 0.8046.

Question: And the RQ2 ([2]; 12 hr, Laminarin + virus)?
Answer: Its RQ2 is 10.612.

Question: And the RQ3 ([2]; 12 hr, Laminarin + virus)?
Answer: The RQ3 was 11.537.

Question: And the RQ mean ([2]; 12 hr, Laminarin + virus)?
Answer: The RQ mean was 10.065.

Question: And the RQ1 ([2]; 12 hr, Laminarin alone)?
Answer: The RQ1 was 0.7901.

Question: And the RQ2 ([2]; 12 hr, Laminarin alone)?
Answer: Its RQ2 is 11.285.

Question: What about the RQ3 ([2]; 12 hr, Laminarin alone) of the same substance?
Answer: The RQ3 was 0.9408.

Question: What about the RQ mean ([2]; 12 hr, Laminarin alone) of the same substance?
Answer: Its RQ mean is 0.9531.

Question: What about the RQ1 ([2]; 24 hr, Laminarin + virus) of the same substance?
Answer: The RQ1 was 10.601.

Question: What about the RQ2 ([2]; 24 hr, Laminarin + virus) of the same substance?
Answer: The RQ2 was 12.023.

Question: What about the RQ3 ([2]; 24 hr, Laminarin + virus) of the same substance?
Answer: The RQ3 was 0.9700.

Question: And the RQ mean ([2]; 24 hr, Laminarin + virus)?
Answer: Its RQ mean is 10.775.

Question: And the RQ1 ([2]; 24 hr, Laminarin alone)?
Answer: The RQ1 was 11.135.

Question: What about the RQ2 ([2]; 24 hr, Laminarin alone) of the same substance?
Answer: The RQ2 was 12.189.

Question: What about the RQ3 ([2]; 24 hr, Laminarin alone) of the same substance?
Answer: The RQ3 was 0.9994.

Question: And the RQ mean ([2]; 24 hr, Laminarin alone)?
Answer: Its RQ mean is 11.106.

Question: What about the RQ1 ([2]; 48 hr, Laminarin + virus) of the same substance?
Answer: The RQ1 was 0.8610.

Question: What about the RQ2 ([2]; 48 hr, Laminarin + virus) of the same substance?
Answer: Its RQ2 is 13.586.

Question: What about the RQ3 ([2]; 48 hr, Laminarin + virus) of the same substance?
Answer: Its RQ3 is 10.405.

Question: What about the RQ mean ([2]; 48 hr, Laminarin + virus) of the same substance?
Answer: The RQ mean was 10.867.

Question: What about the RQ1 ([2]; 48 hr, Laminarin alone) of the same substance?
Answer: The RQ1 was 0.9204.

Question: What about the RQ2 ([2]; 48 hr, Laminarin alone) of the same substance?
Answer: Its RQ2 is 12.321.

Question: What about the RQ3 ([2]; 48 hr, Laminarin alone) of the same substance?
Answer: Its RQ3 is 10.531.

Question: And the RQ mean ([2]; 48 hr, Laminarin alone)?
Answer: Its RQ mean is 10.685.

Question: What about the RQ1 ([2]; 72 hr, Laminarin + virus) of the same substance?
Answer: Its RQ1 is 17.401.

Question: What about the RQ2 ([2]; 72 hr, Laminarin + virus) of the same substance?
Answer: The RQ2 was 30.624.

Question: And the RQ3 ([2]; 72 hr, Laminarin + virus)?
Answer: The RQ3 was 25.095.

Question: What about the RQ mean ([2]; 72 hr, Laminarin + virus) of the same substance?
Answer: The RQ mean was 24.373.

Question: What about the RQ1 ([2]; 72 hr, Laminarin alone) of the same substance?
Answer: Its RQ1 is 22.196.

Question: What about the RQ2 ([2]; 72 hr, Laminarin alone) of the same substance?
Answer: Its RQ2 is 23.867.

Question: What about the RQ3 ([2]; 72 hr, Laminarin alone) of the same substance?
Answer: Its RQ3 is 23.473.

Question: And the RQ mean ([2]; 72 hr, Laminarin alone)?
Answer: The RQ mean was 23.179.
